Source: patent US9085606B2, “Beta amino acid derivatives as integrin antagonists” (Saint Louis University, priority 2012, dated 2015)

Tests used:
[1] = molecular target: T1, Recombinant human integrin αvβ1 (Homo sapiens, UniProt P05556+P06756); assay: Solid Phase Receptor Assay for αvβ1 Function; details: binding to fibronectin-coated plate; read-out: αvβ1 SPRA IC50
T1 construct: purchased R&D Systems 6579-AV
Description: Solid Phase Receptor Assay for αvβ1 Function.
Wells were washed 3 times with 150 μl TBS+ and 150 μL of blocking buffer (TBS+ with 1% bovine serum albumin, Sigma A7906) were added. The plate was incubated for 1 hr at 37° C. and then washed 3× with TBS+ buffer. […] Compounds were diluted 1:100 into the integrin solution and 50 μL added to empty wells of the washed fibronectin-coated plate according to a standard template with each sample repeated in triplicate. After incubation for two hours at room temperature, the plate was washed 3× with 150 μL of TBS+ buffer. To each well, 50 μL of biotinylated anti-αv antibody (R&D Systems, BAF1219) at 1 μg/mL in TBS+/0.1% BSA were added and the plate covered and incubated for 1 hr at room temperature. After washing the plate 3× with 150 μL of TBS+ buffer, 50 μL of streptavidin-conjugated horseradish peroxidase (R&D Systems, DY998) diluted in TBS+ blocking buffer were added to the wells and the plate incubated for 20 min at room temperature. The plate was washed 3× with TBS+ buffer followed by 50 μL of TMB substrate (Sigma, T4444) added to each well and the plate incubated for 20 min at room temperature. The reaction was optionally stopped with 25 μL of Stop Solution (Sigma S5689). Plates were read by colorimetric detection at 650 nm wavelength using a Tecan Safire II plate reader.

[2] = molecular target: T2, Recombinant human integrin αvβ6 (Homo sapiens, UniProt P06756+P18564); assay: Solid Phase Receptor Assay for αvβ6 Function; details: binding to LAP-coated plate; read-out: αvβ6 SPRA IC50
T2 construct: purchased R&D Systems 3817-AV
Description: Solid Phase Receptor Assay for αvβ6 Function.
Wells were washed 3 times with 150 μL TBS+, and 150 μL of blocking buffer (TBS+ with 1% bovine serum albumin, Sigma A7906) were added. The plate was incubated for 1 hr at 37° C., and then washed 3× with TBS+ buffer. […] Compounds were diluted 1:100 into the integrin solution and then 50 μL added to empty wells of the washed LAP-coated plate according to a standard template with each sample repeated in triplicate. After incubation for two hours at room temperature, the plate was washed 3× with 150 μL of TBS+ buffer. To each well, 50 μL of biotinylated anti-αv antibody (R&D Systems, BAF1219) at 0.5 μg/mL in TBS+/0.1% BSA were added and the plate was covered and incubated for 1 hr at room temperature. After washing the plate 3× with 150 μL of TBS+ buffer, 50 μL of streptavidin-conjugated horseradish peroxidase (R&D Systems, DY998) diluted in TBS+ blocking buffer were added to the wells and the plate incubated for 20 min at room temperature. The plate was washed 3× with TBS+ buffer followed by 50 μL of TMB substrate (Sigma T4444) added to each well and the plate incubated for 20 min at room temperature. The reaction was optionally stopped with 25 μL of Stop Solution (Sigma S5689). Plates were read by colorimetric detection at 650 nm wavelength using a Tecan Safire II plate reader.

T1 sequence (P06756 31-992 limits assumed): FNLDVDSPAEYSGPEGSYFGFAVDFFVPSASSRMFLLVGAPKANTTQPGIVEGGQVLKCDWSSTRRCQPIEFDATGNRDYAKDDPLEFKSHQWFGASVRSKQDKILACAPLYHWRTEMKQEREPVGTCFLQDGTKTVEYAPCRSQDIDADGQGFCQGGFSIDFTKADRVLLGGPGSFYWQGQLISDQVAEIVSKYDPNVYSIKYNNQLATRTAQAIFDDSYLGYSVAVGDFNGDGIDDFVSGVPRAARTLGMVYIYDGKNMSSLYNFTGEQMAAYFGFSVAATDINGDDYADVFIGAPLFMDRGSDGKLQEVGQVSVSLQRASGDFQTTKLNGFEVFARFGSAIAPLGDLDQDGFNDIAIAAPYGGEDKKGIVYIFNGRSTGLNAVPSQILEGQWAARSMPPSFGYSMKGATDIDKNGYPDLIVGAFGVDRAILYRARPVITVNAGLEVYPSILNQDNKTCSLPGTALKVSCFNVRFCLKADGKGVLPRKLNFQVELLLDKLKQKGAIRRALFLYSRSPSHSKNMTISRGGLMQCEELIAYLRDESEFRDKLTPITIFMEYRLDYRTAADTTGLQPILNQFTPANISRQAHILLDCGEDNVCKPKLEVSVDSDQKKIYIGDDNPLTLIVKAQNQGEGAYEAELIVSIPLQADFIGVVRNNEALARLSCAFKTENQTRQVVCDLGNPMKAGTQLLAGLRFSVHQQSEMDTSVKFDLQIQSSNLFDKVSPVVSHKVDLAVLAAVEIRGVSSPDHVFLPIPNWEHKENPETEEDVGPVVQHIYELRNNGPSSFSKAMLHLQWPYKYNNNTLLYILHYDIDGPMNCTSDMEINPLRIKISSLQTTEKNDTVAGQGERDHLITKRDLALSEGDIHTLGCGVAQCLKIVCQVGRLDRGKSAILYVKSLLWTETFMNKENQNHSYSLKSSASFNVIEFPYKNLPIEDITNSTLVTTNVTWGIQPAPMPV
T1 sequence (P05556 21-728 limits assumed): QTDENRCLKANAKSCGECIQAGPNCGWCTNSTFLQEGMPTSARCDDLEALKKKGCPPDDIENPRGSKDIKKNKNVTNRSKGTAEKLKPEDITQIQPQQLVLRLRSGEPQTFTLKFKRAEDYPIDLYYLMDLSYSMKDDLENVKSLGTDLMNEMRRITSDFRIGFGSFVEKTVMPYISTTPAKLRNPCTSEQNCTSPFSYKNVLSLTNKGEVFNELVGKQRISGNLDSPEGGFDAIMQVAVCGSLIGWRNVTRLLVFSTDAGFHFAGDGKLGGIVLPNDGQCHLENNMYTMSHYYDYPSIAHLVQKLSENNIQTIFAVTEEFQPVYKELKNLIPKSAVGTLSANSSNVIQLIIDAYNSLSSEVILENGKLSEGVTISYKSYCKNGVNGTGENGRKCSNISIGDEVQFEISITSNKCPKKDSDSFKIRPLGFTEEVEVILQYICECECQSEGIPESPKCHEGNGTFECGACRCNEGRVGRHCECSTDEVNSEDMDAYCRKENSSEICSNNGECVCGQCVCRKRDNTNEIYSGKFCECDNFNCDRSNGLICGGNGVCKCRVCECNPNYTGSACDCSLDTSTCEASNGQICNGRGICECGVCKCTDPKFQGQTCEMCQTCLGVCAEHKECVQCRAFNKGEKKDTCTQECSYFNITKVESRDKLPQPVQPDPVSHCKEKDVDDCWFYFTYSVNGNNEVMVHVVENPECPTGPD
T2 sequence (P06756 31-992 limits assumed): as the sequence (P06756 31-992 limits assumed) above
T2 sequence (P18564 22-707 limits assumed): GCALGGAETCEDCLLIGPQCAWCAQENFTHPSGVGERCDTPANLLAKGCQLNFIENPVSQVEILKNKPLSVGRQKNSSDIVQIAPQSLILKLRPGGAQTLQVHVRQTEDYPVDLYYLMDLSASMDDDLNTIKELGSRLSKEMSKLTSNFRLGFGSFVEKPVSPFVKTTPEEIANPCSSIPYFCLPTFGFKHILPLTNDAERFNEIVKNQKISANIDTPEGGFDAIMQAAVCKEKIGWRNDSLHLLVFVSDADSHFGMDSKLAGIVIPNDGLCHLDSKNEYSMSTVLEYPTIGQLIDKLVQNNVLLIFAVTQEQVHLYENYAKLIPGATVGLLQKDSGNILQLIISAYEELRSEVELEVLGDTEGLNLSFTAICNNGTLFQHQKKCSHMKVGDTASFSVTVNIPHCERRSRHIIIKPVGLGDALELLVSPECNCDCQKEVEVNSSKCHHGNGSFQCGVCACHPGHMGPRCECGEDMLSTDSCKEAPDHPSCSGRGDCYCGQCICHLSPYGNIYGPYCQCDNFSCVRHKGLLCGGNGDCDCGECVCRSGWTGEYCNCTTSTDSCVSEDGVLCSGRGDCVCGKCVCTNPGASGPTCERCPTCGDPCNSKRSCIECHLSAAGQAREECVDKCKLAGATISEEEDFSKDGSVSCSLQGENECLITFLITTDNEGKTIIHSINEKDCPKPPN

Row | SMILES | IC50 [1] [nM] | IC50 [2] [nM]
1 | CC(C)(C)c1cc(-c2cncnc2)cc([C@H](CC(=O)O)NC(=O)CNC(=O)c2cc(O)cc(NC3=NCC(O)CN3)c2)c1 (stereo partly drawn) [Example 19, (3S)-3-(3-(tert-butyl)-5-(pyrimidin-5-yl)phenyl)-3-(2-(3-hydroxy-5-((5-hydroxy-1,4,5,6-tetrahydropyrimidin-2-yl)amino)benzamido)acetamido)propanoic acid] | 4.1 | 0.7
2 | CC(C)(CO)c1cc(Cl)cc([C@H](CC(=O)O)NC(=O)CNC(=O)c2cc(O)cc(NC3=NCC(O)CN3)c2)c1 (stereo partly drawn) [Example 15, (3S)-3-(3-chloro-5-(1-hydroxy-2-methylpropan-2-yl)phenyl)-3-(2-(3-hydroxy-5-((5-hydroxy-1,4,5,6-tetrahydropyrimidin-2-yl)amino)benzamido)acetamido)propanoic acid] | 2.9 | 0.4
3 | CC(C)(C)c1cc(Br)c(O)c([C@H](CC(=O)O)NC(=O)CNC(=O)c2cc(O)cc(NC3=NCC(O)CN3)c2)c1 (stereo partly drawn) [Example 1, (3S)-3-(3-bromo-5-(tert-butyl)-2-hydroxyphenyl)-3-(2-(3-hydroxy-5-((5-hydroxy-1,4,5,6-tetrahydropyrimidin-2-yl)amino)benzamido)acetamido)propanoic acid] | 2.1 | 0.4
4 | CC(C)(C)c1cc(C#N)cc([C@H](CC(=O)O)NC(=O)CNC(=O)c2cc(O)cc(NC3=NCC(O)CN3)c2)c1 (stereo partly drawn) [Example 12, (3S)-3-(3-(tert-butyl)-5-cyanophenyl)-3-(2-(3-hydroxy-5-((5-hydroxy-1,4,5,6-tetrahydro-pyrimidin-2-yl)amino)benzamido)acetamido)propanoic acid] | 2 | 0.4
5 | O=C(O)C[C@H](NC(=O)CNC(=O)c1cc(O)cc(NC2=NCC(O)CN2)c1)c1cc(Cl)cc(C2(CF)CCOCC2)c1 (stereo partly drawn) [Example 20, (3S)-3-(3-chloro-5-(4-(fluoromethyl)tetrahydro-2H-pyran-4-yl)phenyl)-3-(2-(3-hydroxy-5-((5-hydroxy-1,4,5,6-tetrahydropyrimidin-2-yl)amino)benzamido)acetamido)propanoic acid] | 4.9 | 1.4
6 | COCC1(c2cc(Cl)cc([C@H](CC(=O)O)NC(=O)CNC(=O)c3cc(O)cc(NC4=NCC(O)CN4)c3)c2)CCOCC1 (stereo partly drawn) [Example 16, (3S)-3-(3-chloro-5-(4-(Methoxymethyl)tetrahydro-2H-pyran-4-yl)phenyl)-3-(2-(3-hydroxy-5-((5-hydroxy-1,4,5,6-tetrahydropyrimidin-2-yl)amino)benzamido)acetamido)propanoic acid] | 3.3 | 0.5
7 | CC(C)(C)c1cc(Br)cc([C@H](CC(=O)O)NC(=O)CNC(=O)c2cncc(NC3=NCC(O)CN3)c2)c1 (stereo partly drawn) [Example 8, (3S)-3-(3-bromo-5-(tert-butyl)phenyl)-3-(2-(5-((5-hydroxy-1,4,5,6-tetrahydropyrimidin-2-yl)amino)nicotinamido)acetamido)propanoic acid] | 3 | 0.5
8 | CC(C)(C)c1cc(-c2cccnc2)cc([C@H](CC(=O)O)NC(=O)CNC(=O)c2cc(O)cc(NC3=NCC(O)CN3)c2)c1 (stereo partly drawn) [Example 18, (3S)-3-(3-(tert-butyl)-5-(pyridin-3-yl)phenyl)-3-(2-(3-hydroxy-5-((5-hydroxy-1,4,5,6-tetrahydropyrimidin-2-yl)amino)benzamido)acetamido)propanoic acid] | 3.4 | 0.6
9 | CC(C)(O)c1cc(Br)cc([C@H](CC(=O)O)NC(=O)CNC(=O)c2cc(O)cc(NC3=NCC(O)CN3)c2)c1 (stereo partly drawn) [Example 3, (3S)-3-(3-bromo-5-(2-hydroxypropan-2-yl)phenyl)-3-(2-(3-hydroxy-5-((5-hydroxy-1,4,5,6-tetrahydropyrimidin-2-yl)amino)benzamido)acetamido)propanoic acid] | 2.2 | 0.7
10 | CC(C)(C)c1cc(Br)cc([C@H](CC(=O)O)NC(=O)CNC(=O)c2cncc(NC(=N)N)c2)c1 [Example 6, (S)-3-(3-bromo-5-(tert-butyl)phenyl)-3-(2-(5-guanidinonicotinamido)acetamido) propanoic acid] | 4.7 | 0.5
11 | CC(C)(C)c1cc(Br)cc([C@H](CC(=O)O)NC(=O)CNC(=O)c2cc(O)cc(NC3=NCC(O)CN3)c2)c1O (stereo partly drawn) [Example 2, (3S)-3-(5-bromo-3-(tert-butyl)-2-hydroxyphenyl)-3-(2-(3-hydroxy-5-((5-hydroxy-1,4,5,6-tetrahydropyrimidin-2-yl)amino)benzamido)acetamido)propanoic acid] | 2.2 | 0.7
12 | CC(C)(C)c1cc(Br)cc([C@H](CC(=O)O)NC(=O)CNC(=O)c2cc(O)cc(NC3=NCCN3)c2)c1 [Example 9, (S)-3-(3-bromo-5-(tert-butyl)phenyl)-3-(2-(3-((4,5-dihydro-1H-imidazol-2-yl)amino)-5-hydroxybenzamido)acetamido)propanoic acid] | 2.4 | 0.5
13 | CC(C)(O)c1cc([C@H](CC(=O)O)NC(=O)CNC(=O)c2cc(O)cc(NC3=NCC(O)CN3)c2)cc(C(F)(F)F)c1 (stereo partly drawn) [Example 13, (3S)-3-(2-(3-hydroxy-5-((5-hydroxy-1,4,5,6-tetrahydropyrimidin-2-yl)amino)benzamido)acetamido)-3-(3-(2-hydroxypropan-2-yl)-5-(trifluoromethyl)phenyl)propanoic acid] | 4 | 0.6
14 | O=C(O)C[C@H](NC(=O)CNC(=O)c1cc(O)cc(NC2=NCC(O)CN2)c1)c1cc(Cl)cc(C2(CO)CCOCC2)c1 (stereo partly drawn) [Example 17, (3S)-3-(3-chloro-5-(4-(hydroxymethyl)tetrahydro-2H-pyran-4-yl)phenyl)-3-(2-(3-hydroxy-5-((5-hydroxy-1,4,5,6-tetrahydropyrimidin-2-yl)amino)benzamido)acetamido)propanoic acid] | 3 | 0.5
15 | CC(C)(C#N)c1cc(Br)cc([C@H](CC(=O)O)NC(=O)CNC(=O)c2cc(O)cc(NC3=NCC(O)CN3)c2)c1 (stereo partly drawn) [Example 11, (3S)-3-(3-bromo-5-(2-cyanopropan-2-yl)phenyl)-3-(2-(3-hydroxy-5-((5-hydroxy-1,4,5,6-tetrahydropyrimidin-2-yl)amino)benzamido)acetamido)propanoic acid] | 2.8 | 0.5
16 | CC(C)(C)c1cc(Br)cc([C@H](CC(=O)O)NC(=O)CNC(=O)c2cccc(NC(=N)N)c2)c1 [Example 5, (S)-3-(3-bromo-5-(tert-butyl)phenyl)-3-(2-(3-guanidinobenzamido)acetamido) propanoic acid] | 3.2 | 0.6
17 | COCC(C)(C)c1cc(Cl)cc([C@H](CC(=O)O)NC(=O)CNC(=O)c2cc(O)cc(NC3=NCC(O)CN3)c2)c1 (stereo partly drawn) [Example 14, (3S)-3-(3-chloro-5-(1-methoxy-2-methylpropan-2-yl)phenyl)-3-(2-(3-hydroxy-5-((5-hydroxy-1,4,5,6-tetrahydropyrimidin-2-yl)amino)benzamido)acetamido)propanoic acid] | 2.4 | 0.4
18 | CC(C)(C)c1cc([C@H](CC(=O)O)NC(=O)CNC(=O)c2cncc(NC(=N)N)c2)cc(C(C)(C)C)c1 [Example 10, (S)-3-(3,5-di-tert-butylphenyl)-3-(2-(5-guanidinonicotinamido)acetamido)propanoic acid] | 2.1 | 1.2
19 | CC(C)(C)c1cc(Br)cc([C@H](CC(=O)O)NC(=O)CNC(=O)c2cccc(NC3=NCCN3)c2)c1 [Example 7, (S)-3-(3-bromo-5-(tert-butyl)phenyl)-3-(2-(3-((4,5-dihydro-1H-imidazol-2-yl)amino)benzamido)acetamido)propanoic acid] | 2.7 | 0.2
20 | CC(C)(O)c1cc(Cl)cc([C@H](CC(=O)O)NC(=O)CNC(=O)c2cc(O)cc(NC3=NCC(O)CN3)c2)c1 (stereo partly drawn) [Example 4, (3S)-3-(3-chloro-5-(2-hydroxypropan-2-yl)phenyl)-3-(2-(3-hydroxy-5-((5-hydroxy-1,4,5,6-tetrahydropyrimidin-2-yl)amino)benzamido)acetamido)propanoic acid] | 1.7 | 0.5
